The term inhibition denotes the percentage by which the read-out fell short of the control.

For this assay, the target named is Histone deacetylase 2 (Homo sapiens, UniProt Q92769). The assay can be described thus: Inhibition of full-length recombinant human C-terminal GST tagged HDAC2 expressed in Sf9 insect cells using aminoluciferin peptide substrate at 100 nM preincubated for 3 hrs followed by substrate addition and measured after 30 mins by HDAC-Glo I/II chemiluminescence assay. The following applies: time 3.5 hrs.
Sequence of Histone deacetylase 2 (Q92769 whole entry): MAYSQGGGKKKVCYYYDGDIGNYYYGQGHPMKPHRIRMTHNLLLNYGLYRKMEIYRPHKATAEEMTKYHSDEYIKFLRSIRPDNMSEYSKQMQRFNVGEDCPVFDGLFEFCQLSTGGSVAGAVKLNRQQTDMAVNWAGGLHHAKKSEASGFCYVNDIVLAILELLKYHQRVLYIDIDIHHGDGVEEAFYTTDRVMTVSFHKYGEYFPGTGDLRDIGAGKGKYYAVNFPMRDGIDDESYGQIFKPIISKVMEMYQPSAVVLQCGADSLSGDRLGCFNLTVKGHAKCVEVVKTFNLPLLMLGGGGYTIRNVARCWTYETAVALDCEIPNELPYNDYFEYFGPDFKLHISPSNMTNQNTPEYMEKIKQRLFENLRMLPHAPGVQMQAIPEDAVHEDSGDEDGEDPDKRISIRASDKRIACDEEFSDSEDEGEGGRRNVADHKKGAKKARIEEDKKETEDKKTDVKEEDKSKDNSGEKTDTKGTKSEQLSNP
In the case of `Nc1ccc(-c2ccc(F)cc2)cc1NC(=O)c1cn(CCCCC(=O)O)nn1`, the inhibition is 22%. As to `CCc1ccc(Cn2cc(CCC(=O)Nc3cc(-c4cccnc4)ccc3N)nn2)cc1`, the inhibition was found to be 5%. Regarding `Nc1ccc(-c2cccs2)cc1NC(=O)c1cn(Cc2nc3ccccc3[nH]2)nn1`, the inhibition came to 20%. As for `Nc1ccc(-c2ccsc2)cc1NC(=O)CCc1cn(CCc2ccc(F)cc2)nn1`, the inhibition is 21%.

For the molecule `Nc1ccc(-c2ccsc2)cc1NC(=O)CCc1cn(CCC23CC4CC(CC(C4)C2)C3)nn1`, the inhibition was 0%.

In the case of `Nc1ccc(-c2cccs2)cc1NC(=O)c1ccc(-c2cn(CCCc3ccccc3)nn2)cc1`, the inhibition is 2%. For `Nc1ccc(-c2ccccc2)cc1NC(=O)c1cn(CC23CC4CC(CC(C4)C2)C3)nn1` the value was 0%; for `Nc1ccc(-c2ccsc2)cc1NC(=O)c1cn(C[S+]([O-])c2ccccc2)nn1` (centres undefined), 10%; for `Nc1ccc(-c2ccccc2)cc1NC(=O)CCc1cn(-c2cccc3ccccc23)nn1`, 0%. Turning to `Nc1ccc(-c2ccsc2)cc1NC(=O)CCc1cn(Cc2nc3ccccc3[nH]2)nn1`, the inhibition was found to be 25%. For `Nc1ccc(-c2cccs2)cc1NC(=O)c1cn(CCc2ccccc2Cl)nn1`, the inhibition turned out to be 3%. Take `Nc1ccc(-c2cccs2)cc1NC(=O)c1cccc(-c2cn(CC(=O)Nc3ccc(F)cc3)nn2)c1`: the inhibition worked out at 0%. Take `Nc1ccc(-c2ccc(F)cc2)cc1NC(=O)c1cn(Cc2ccc(-c3ccccc3)cc2)nn1`: the inhibition was determined as 0%. With `Nc1ccc(-c2ccsc2)cc1NC(=O)CCc1cn(Cc2cc3ccccc3s2)nn1`, the inhibition came to 3%. For `Nc1ccc(-c2cccs2)cc1NC(=O)CCc1cn(Cc2ccc(OC(F)(F)F)cc2)nn1` the value was 17%; for `Nc1ccc(-c2cccs2)cc1NC(=O)c1ccc(-c2cn(/C=C/c3ccccc3)nn2)cc1`, 0%; for `Nc1ccc(-c2cccs2)cc1NC(=O)c1cccc(-c2cn(CC34CC5CC(CC(C5)C3)C4)nn2)c1`, 0%.

For `Nc1ccc(-c2ccccc2)cc1NC(=O)CCc1cn(CCc2ccc(F)cc2)nn1`, the inhibition is 9%. For `COc1ccc(-n2cc(CCC(=O)Nc3cc(-c4cccs4)ccc3N)nn2)cc1`, the inhibition worked out at 14%. `Nc1ccc(-c2cccs2)cc1NC(=O)CCc1cn(CCc2ccccc2C(F)(F)F)nn1`: the inhibition is 0%.

Take `Nc1ccc(-c2cccs2)cc1NC(=O)c1cn(CCc2ccccc2C(F)(F)F)nn1`: the inhibition was 5%. As to `Nc1ccc(-c2cccnc2)cc1NC(=O)CCc1cn(CCc2ccc(F)cc2)nn1`, the inhibition is 3%. Turning to `Nc1ccc(-c2ccsc2)cc1NC(=O)c1cn(CCc2ccc(C(F)(F)F)cc2)nn1`, the inhibition turned out to be 0%. Turning to `Nc1ccc(-c2ccc(F)cc2)cc1NC(=O)c1cn(Cc2cc3ccccc3s2)nn1`, the inhibition stood at 7%. With `Nc1ccc(-c2cccs2)cc1NC(=O)c1ccc(-c2cn(-c3ccc(O)cc3)nn2)cc1`, the inhibition came to 16%.

`Nc1ccc(-c2cccs2)cc1NC(=O)c1ccc(-c2cn(CCCCCc3ccccc3)nn2)cc1`: the inhibition came to 0%.

Consider `Nc1ccc(-c2ccsc2)cc1NC(=O)c1cn(Cc2ccc(Oc3ccccc3)cc2)nn1`, for which the inhibition came to 0%. In the case of `Cc1cccc(CCn2cc(C(=O)Nc3cc(-c4ccccc4)ccc3N)nn2)c1` it was 1%.

Take `Nc1ccc(-c2ccc(F)cc2)cc1NC(=O)CCc1cn(-c2cccc3ccccc23)nn1`: the inhibition turned out to be 0%. As for `Nc1ccc(-c2ccsc2)cc1NC(=O)c1cn(CCc2cccc(C(F)(F)F)c2)nn1`, the inhibition stood at 0%. In the case of `Nc1ccc(-c2ccc(F)cc2)cc1NC(=O)CCc1cn(CCc2ccc([N+](=O)[O-])cc2)nn1`, the inhibition was found to be 20%. For the molecule `Nc1ccc(-c2cccs2)cc1NC(=O)c1cn(-c2ccc(Br)cc2)nn1`, the inhibition turned out to be 0%. In the case of `Cc1csc(CCn2cc(CCC(=O)Nc3cc(-c4cccs4)ccc3N)nn2)n1`, the inhibition is 30%. `Nc1ccc(-c2ccc(F)cc2)cc1NC(=O)CCc1cn(CCc2cccc([N+](=O)[O-])c2)nn1`: the inhibition turned out to be 41%. For the molecule `Nc1ccc(-c2cccnc2)cc1NC(=O)CCc1cn(-c2ccccc2-c2ccccc2)nn1`, the inhibition came to 9%. Take `Nc1ccc(-c2cccs2)cc1NC(=O)c1cccc(-c2cn(CCCCCCCC(=O)O)nn2)c1`: the inhibition is 3%. For the molecule `Nc1ccc(-c2cccs2)cc1NC(=O)CCc1cn(CCC2CCCCC2)nn1`, the inhibition turned out to be 4%. Take `Nc1ccc(-c2ccsc2)cc1NC(=O)CCc1cn(CCCCCc2ccccc2)nn1`: the inhibition was 5%. On to `Nc1ccc(-c2ccsc2)cc1NC(=O)CCc1cn(CCc2ccccn2)nn1`, for which the inhibition is 12%. On to `Nc1ccc(-c2cccs2)cc1NC(=O)c1cn(CCC2CCCC2)nn1`, for which the inhibition turned out to be 0%. Take `Cc1cccc(CCn2cc(CCC(=O)Nc3cc(-c4cccnc4)ccc3N)nn2)c1`: the inhibition turned out to be 30%. In the case of `Nc1ccc(-c2cccs2)cc1NC(=O)c1ccc(-c2cn(CCc3ccccc3Cl)nn2)cc1`, the inhibition came to 5%. `Nc1ccc(-c2cccs2)cc1NC(=O)c1ccc(-c2cn(Cc3ccc(C(=O)O)cc3)nn2)s1`: the inhibition amounted to 61%. As for `Cc1ccc(-n2cc(CCC(=O)Nc3cc(-c4ccc(F)cc4)ccc3N)nn2)cc1C`, the inhibition is 0%. As for `Nc1ccc(-c2ccc(F)cc2)cc1NC(=O)CCc1cn(CCCCCc2ccccc2)nn1`, the inhibition was found to be 5%. For `Nc1ccc(-c2cccs2)cc1NC(=O)c1cccc(-c2cn(Cc3cccc4ccccc34)nn2)c1` the value was 14%; for `Nc1ccc(-c2cccs2)cc1NC(=O)c1ccc(-c2cn(CCC34CC5CC(CC(C5)C3)C4)nn2)s1`, 0%. Consider `Cc1ccccc1CCn1cc(C(=O)Nc2cc(-c3ccsc3)ccc2N)nn1`, for which the inhibition is 0%.

For the molecule `Nc1ccc(-c2ccccc2)cc1NC(=O)c1cn(-c2ccc(Br)cc2)nn1`, the inhibition stood at 0%. On to `Nc1ccc(-n2cc(C(=O)Nc3cc(-c4cccs4)ccc3N)nn2)cc1`, for which the inhibition is 10%.

Turning to `Nc1ccc(-c2cccs2)cc1NC(=O)c1ccc(-c2cn(CC(=O)Nc3ccc(F)cc3)nn2)s1`, the inhibition turned out to be 23%. `Nc1ccc(-c2cccs2)cc1NC(=O)c1ccc(-c2cn(Cc3cccc(C(=O)O)c3)nn2)s1`: the inhibition was 25%. In the case of `Nc1ccc(-c2ccsc2)cc1NC(=O)c1cn(CCc2ccccn2)nn1` it was 1%; in that of `Nc1ccc(-c2cccnc2)cc1NC(=O)CCc1cn(CCC2CCCCC2)nn1`, 5%.

With `Nc1ccc(-c2cccs2)cc1NC(=O)CCc1cn(CCc2c[nH]c3ccccc23)nn1`, the inhibition turned out to be 18%. Turning to `Nc1ccc(-c2cccs2)cc1NC(=O)CCc1cn(Cc2cc3ccccc3s2)nn1`, the inhibition stood at 27%. `Nc1ccc(-c2ccsc2)cc1NC(=O)c1cn(Cc2ccc(OC(F)(F)F)cc2)nn1`: the inhibition amounted to 0%. For `Nc1ccc(-n2cc(CCC(=O)Nc3cc(-c4cccs4)ccc3N)nn2)cc1`, the inhibition amounted to 25%. Take `Nc1ccc(-c2cccs2)cc1NC(=O)CCc1cn(Cc2cccc(-c3ccccc3)c2)nn1`: the inhibition was found to be 0%. For `Cc1ccc(CCn2cc(CCC(=O)Nc3cc(-c4ccccc4)ccc3N)nn2)cc1`, the inhibition is 16%.

With `Nc1ccc(-c2ccccc2)cc1NC(=O)c1cn(CC(=O)c2ccccc2)nn1`, the inhibition was 0%. In the case of `Nc1ccc(-c2cccs2)cc1NC(=O)c1ccc(-c2cn(CCN3CCOCC3)nn2)s1` it was 69%; in that of `COc1ccccc1CCn1cc(-c2ccc(C(=O)Nc3cc(-c4cccs4)ccc3N)cc2)nn1`, 29%; in that of `Nc1ccc(-c2cccs2)cc1NC(=O)c1cccc(-c2cn(Cc3ccc(-c4ccccc4)cc3)nn2)c1`, 0%. Regarding `Nc1ccc(-c2cccs2)cc1NC(=O)c1cn(-c2cccc3ccccc23)nn1`, the inhibition was determined as 0%.

Take `Nc1ccc(-c2cccnc2)cc1NC(=O)CCc1cn(CC(=O)c2ccccc2)nn1`: the inhibition came to 3%.

For the molecule `Nc1ccc(-c2ccccc2)cc1NC(=O)c1cn(-c2ccc(I)cc2)nn1`, the inhibition came to 0%. Turning to `Nc1ccc(-c2cccs2)cc1NC(=O)c1cn(CC(=O)c2ccccc2)nn1`, the inhibition came to 15%. Turning to `Nc1ccc(-c2ccccc2)cc1NC(=O)c1cn(CCc2ccsc2)nn1`, the inhibition is 0%. In the case of `Nc1ccc(-c2ccccc2)cc1NC(=O)c1cn(CCc2cccc(C(F)(F)F)c2)nn1`, the inhibition worked out at 0%.

`Nc1ccc(-c2ccsc2)cc1NC(=O)c1cn(CC23CC4CC(CC(C4)C2)C3)nn1`: the inhibition stood at 0%. Regarding `Nc1ccc(-c2cccs2)cc1NC(=O)c1ccc(-c2cn(CCc3cccc(Cl)c3)nn2)s1`, the inhibition came out at 6%.

For the molecule `Nc1ccc(-c2ccc(F)cc2)cc1NC(=O)c1cn(Cc2cccc(C(=O)O)c2)nn1`, the inhibition came to 0%. As to `Nc1ccc(-c2ccc(F)cc2)cc1NC(=O)CCc1cn(CCN2CCc3ccccc3C2)nn1`, the inhibition is 18%. Take `Nc1ccc(-c2ccccc2)cc1NC(=O)c1cn(Cc2nc3ccccc3[nH]2)nn1`: the inhibition was found to be 11%. For `Nc1ccc(-c2cccs2)cc1NC(=O)c1cn(CCC23CC4CC(CC(C4)C2)C3)nn1` the value was 2%; for `Nc1ccc(-c2ccc(F)cc2)cc1NC(=O)c1cn(CCCCCC(=O)O)nn1`, 20%; for `Nc1ccc(-c2ccsc2)cc1NC(=O)CCc1cn(CCN2CCc3ccccc3C2)nn1`, 18%. For the molecule `Nc1ccc(-c2ccccc2)cc1NC(=O)CCc1cn(CCCCCCC(=O)O)nn1`, the inhibition worked out at 0%.

In the case of `Cc1ccccc1CCn1cc(CCC(=O)Nc2cc(-c3ccsc3)ccc2N)nn1`, the inhibition is 14%. With `Nc1ccc(-c2ccc(F)cc2)cc1NC(=O)c1cn(-c2ccccc2-c2ccccc2)nn1`, the inhibition is 19%. As to `Cc1cccc(CCn2cc(-c3ccc(C(=O)Nc4cc(-c5cccs5)ccc4N)cc3)nn2)c1`, the inhibition was 26%.

On to `Cc1cccc(CCn2cc(C(=O)Nc3cc(-c4ccsc4)ccc3N)nn2)c1`, for which the inhibition worked out at 7%. Take `Nc1ccc(-c2ccc(F)cc2)cc1NC(=O)c1cn(Cc2ccc(Oc3ccccc3)cc2)nn1`: the inhibition came out at 5%.
